Measurements as given in patent US20180148390A1, “METHOD AND COMPOSITION FOR RETAINING NUTRIENTS IN SOIL AT PLANTING SITES” (WaterScience, Inc., priority 2016, published 2018).
Converted amounts (≈) assume the structure as drawn.

Key:
[1] = physchem; conditions: for solubility: 25 °C, pH 7, water
Text: High solubility of naturally occurring positively charged amino acids are subject to runoff, which may be problematic. However, positively charged amino acids are better retained than negatively charged nitrate, sulfate, and phosphate which are poorly retained in the negatively charged soils.

[2] = Electro-potential of amino acid in deionized water against a hydrogen electrode; assay type: physicochemical; conditions: amino acid in 100 ml deionized water, electro-potential meter against hydrogen electrode
Procedure: After drying, 890.9 mg of the modified alanine (i.e., protonated alanine) was added to 100 ml of deionized water to form a modified alanine solution. The electro-potential of the modified alanine water mixture was measured with an electro-potential meter against a hydrogen electrode. […] 890.9 mg sample of unmodified alanine was added to 100 ml of deionized water.
890.9 mg sample of unmodified glutamic acid was added to 100 ml of deionized water.
After drying, 1902 mg of the modified leucine was added to 100 ml of deionized water to form a modified leucine solution. The electro-potential of the modified leucine water mixture was measured with an electro-potential meter against a Hydrogen electrode. […] 1312 mg sample of unmodified leucine was added to 100 ml of deionized water.

[3] = Column retention of amino acid on WS A201; assay type: physicochemical; conditions: for amount complexed and retained by the WS A 201 / amount passed through the column: 100 ml solution on 89 ml WS A201 column at 1.5 ml/min, displaced with 100 ml deionized water; for converted to cationic charge: from WS A201 column retention
Procedure: The modified alanine solution was added to 100 ml burette with 9 mm diameter at the rate of 1.5 ml/min. The column was filled with 89 ml of WS A201 (WaterScience, Inc., Peoria, Ill.) which has an anion exchange capacity of 2 EG Kg. To the burette was added 100 ml deionized water to displace the modified alanine. […] The 100 ml of deionized water containing 890.9 mg of unmodified alanine was added to another column containing fresh WS A 201. To the burette was also added 100 ml of deionized water to displace the unmodified alanine solution from the column.
The column was filled with 89 ml of WS A 201 which has an anion exchange capacity of 2 EG Kg. […] The 100 ml of deionized water containing 1471 mg of unmodified glutamic acid was added to another column containing fresh WS A 201. To the burette column was also added 100 ml of deionized water to displace the unmodified glutamic acid solution from the column.
The 1% modified leucine acid solution was added to 100 ml burette with 9 mm diameter at the rate of 1.5 ml/min. The column was filled with 89 ml of WS A 201 which has an anion exchange capacity of 2 EG Kg. To the burette was added 100 ml deionized water to displace the modified leucine. […] The 100 ml of deionized water containing 1312 mg of unmodified leucine was added to another column containing fresh WS A 201. To the burette was also added 100 ml of deionized water to displace the unmodified leucine solution from the column.

| SMILES | solubility [1] | reduction of solubility by modification with a weak base to pH 10 ([1]; pH 10) | electro-potential [2] | amount complexed and retained by the WS A 201 [3] | amount passed through the column [3] | converted to cationic charge [3] |
| --- | --- | --- | --- | --- | --- | --- |
| N[C@@H](Cc1c[nH]cn1)C(=O)O [histidine] | 41.9 mg/mL (≈ 270 mM) |  |  |  |  |  |
| NCCCC[C@H](N)C(=O)O [lysine] | 1000 mg/mL (≈ 6840 mM) | 89% |  |  |  |  |
| C[C@H](N)C(=O)O [modified alanine, Protonated alanine] |  |  | 177 mV | 845.8 mg | 45.1 mg | 94.9% |
| CC(CNC(=N)N)C[C@H](N)C(=O)O (some centres unmarked) [modified leucine, Guanidine modified leucine] |  |  | 197 mV | 1246 mg | 66 mg | 95% |
| C[C@H](N)C(=O)O [unmodified alanine, alanine, reference compound] |  |  |  | 37.3 mg | 853.6 mg |  |
| N[C@@H](CCC(=O)O)C(=O)O [unmodified glutamic acid, glutamic acid, reference compound] |  |  |  | 79 mg | 1392 mg |  |
| CC(C)C[C@H](N)C(=O)O [unmodified leucine, leucine, reference compound] |  |  |  | 41 mg | 1271 mg |  |
